For one assay, the target named is T1, r-NAAA (Rattus norvegicus, UniProt Q5KTC7).
T1 construct: Lysosomal NAAA protein preparation was obtained by homogenizing male Sprague-Dawley rat lungs; tissue Charles River (animals); host or cells: male Sprague-Dawley rat lung, soluble lysosomal fraction
T1 sequence (Q5KTC7 34-362): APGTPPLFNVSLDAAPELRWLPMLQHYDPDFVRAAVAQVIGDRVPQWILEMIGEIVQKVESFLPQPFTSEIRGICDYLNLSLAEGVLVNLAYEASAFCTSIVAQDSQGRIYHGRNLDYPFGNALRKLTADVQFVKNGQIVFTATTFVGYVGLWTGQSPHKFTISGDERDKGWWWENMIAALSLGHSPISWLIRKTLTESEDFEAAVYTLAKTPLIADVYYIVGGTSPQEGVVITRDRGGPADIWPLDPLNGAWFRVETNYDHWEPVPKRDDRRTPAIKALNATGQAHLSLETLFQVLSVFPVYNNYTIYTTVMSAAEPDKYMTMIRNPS
In words: UPLC/MS r-NAAA assay. In kind it is biochemical.
Details: not given
Here is the method: Lysosomal NAAA protein preparation was obtained by homogenizing male Sprague-Dawley rat lungs (Charles River) in 20 mM Tris-HCl buffer pH 7.4 containing 0.32M sucrose. […] Supernatants were then centrifuged at 12,000 xg for 30 min at 4° C. Pellets were then resuspended in PBS pH 7.4 and subjected to a freeze/thaw cycle at −80° C. The suspension was finally centrifuged at 105,000×g for 1 h at 4° C. The supernatant was then used in the enzymatic assay.
NAAA protein preparation was pre-incubated with various concentrations of test compounds or vehicle control in 100 mM NaH2PO4/Citrate buffer, 1% Triton-X, 3 mM DTT (pH 4.5) for 30 min at 37° C. Samples were then incubated with heptadecenoylethanolamide (50 μM, Avanti Polar Lipids) at 37° C. for 30 min. The reaction was terminated by addition of cold methanol containing heptadecanoic acid (NuCheck Prep) as internal standard. Samples were then analyzed by UPLC/MS (Acquity, Waters). […] The column temperature was 40° C. Electrospray ionization was in the negative mode, capillary voltage was 0.5 kV, cone voltage was […], desolvation temperature was 500° C. N2 was used as drying gas at a flow rate of 1000 L/hour and a temperature of 500° C. […] Calibration curves were generated using commercial heptadecenoic acid (NuCheck Prep) Inhibition of NAAA activity was calculated as reduction of heptadecenoic acid in the samples compared to vehicle controls. IC50 values were calculated by non-linear regression analysis of log [concentration]/inhibition curves using GraphPad Prism 5 (GraphPad Software Inc., CA—USA) applying a standard slope curve fitting.
`O=C(N[C@H]1CNC1=O)OCC/C=C\c1ccccc1` [Example 12, [(Z)-4-Phenylbut-3-enyl]-N-[(3S)-2-oxoazetidin-3-yl]-carbamate] returned an IC50 of 1600 nM.
The compound `O=C(N[C@H]1CNC1=O)Oc1ccc(Cc2ccccc2)cc1` [Example 33, (4-Benzylphenyl)-N-[(3S)-2-oxoazetidin-3-yl]-carbamate] showed an IC50 of 21000 nM.
In the case of `O=C(N[C@H]1CNC1=O)OCCOCCC1CCCCC1` [Example 51, 2-(2-Cyclohexylethoxy)-ethyl-N-[(3S)-2-oxoazetidin-3-yl]-carbamate], the IC50 came out at 770 nM.
As to `CCCCCCOC(=O)N[C@H]1CNC1=O` [Example 23, Hexyl-N-[(3S)-2-oxoazetidin-3-yl]-carbamate], the IC50 stood at 1600 nM.
`O=C(N[C@H]1CNC1=O)OC1CCC(=Cc2ccccc2)CC1` (stereo partly drawn) [Example 8, (R,E) and (S,Z)-(4-Benzylidenecyclohexyl)-N-[(3S)-2-oxoazetidin-3-yl]-carbamate] registered an IC50 of 5700 nM.
As for `CC(C)(CCCCc1ccccc1)OC(=O)N[C@H]1CNC1=O` [Example 16, (1,1-Dimethyl-5-phenyl-pentyl)-N-[(3S)-2-oxoazetidin-3-yl]-carbamate], the IC50 is 8000 nM.
Still for that read-out and setting: to `O=C(N[C@H]1CNC1=O)OCc1ccc(OC2CCCCC2)cc1` [Example 64, [4-(Cyclohexoxy)-phenyl]-methyl-N-[(3S)-2-oxoazetidin-3-yl]-carbamate] belongs 160 nM; to `CC(CCCCc1ccccc1)OC(=O)N[C@H]1CNC1=O` (mixture of isomers) [Example 15, [(1S)- and (1R)-(1-Methyl-5-phenyl-pentyl)]-N-[(3S)-2-oxoazetidin-3-yl]-carbamate], 3900 nM; to `O=C(N[C@H]1CNC1=O)OCCCC1CCCCC1` [Example 18, 3-Cyclohexylpropyl-N-[(3S)-2-oxoazetidin-3-yl]-carbamate], 40 nM.
`C[C@@H]1NC(=O)[C@@H]1NC(=O)OCCCCC1CCCCC1` [Example 83, 4-Cyclohexylbutyl-N-[(2S,3R)-2-methyl-4-oxo-azetidin-3-yl]-carbamate] registered a half-maximal inhibitory concentration (IC50) of 4700 nM.
`O=C(N[C@H]1CNC1=O)OCCCCCC1CCCCC1` [Example 19, 5-Cyclohexylpentyl-N-[(3S)-2-oxoazetidin-3-yl]-carbamate]: half-maximal inhibition (IC50) required 58 nM.
`Cc1ccccc1CCCCOC(=O)N[C@H]1CNC1=O` [Example 29, 4-(o-Tolyl)-butyl-N-[(3S)-2-oxoazetidin-3-yl]-carbamate] came in with an IC50 of 2000 nM.
Still for that read-out and setting: to `O=C(N[C@H]1CNC1=O)OCCCCC1CCCC1` [Example 20, 4-Cyclopentylbutyl-N-[(3S)-2-oxoazetidin-3-yl]-carbamate] belongs 48 nM; to `CCCCCCCCOC(=O)N[C@H]1CNC1=O` [Example 24, Octyl-N-[(3S)-2-oxoazetidin-3-yl]-carbamate], 16 nM.
Regarding `O=C(N[C@@H]1CNC1=O)OCCCCCc1ccccc1` [Example 4, 5-Phenylpentyl-N-[(3R)-2-oxoazetidin-3-yl]-carbamate], the IC50 turned out to be 18700 nM.
`CCCCCCCOC(=O)N[C@@H]1CNC1=O` [Example 2, Heptyl-N-[(3R)-2-oxoazetidin-3-yl]-carbamate] showed an IC50 of 66000 nM.
On the same count and under the same terms, then `CCCCc1ccc(COC(=O)N[C@H]2CNC2=O)cc1` [Example 26, (4-Butylphenyl)-methyl-N-[(3S)-2-oxoazetidin-3-yl]-carbamate], with 46 nM; and `C[C@@H]1NC(=O)[C@H]1NC(=O)OCCCCCc1ccccc1` [Example 75, 5-Phenylpentyl-N-[(2S,3S)-2-methyl-4-oxo-azetidin-3-yl]-carbamate], with 2800 nM; and `Cc1cccc(-c2ccc(COC(=O)N[C@H]3CNC3=O)cc2)c1` [Example 43, [4-(m-Tolyl)-phenyl]-methyl-N-[(3S)-2-oxoazetidin-3-yl]-carbamate], with 870 nM.
Same read-out and setting: then `O=C(N[C@H]1CNC1=O)OCCCCc1ccc(C(F)(F)F)cc1` [Example 38, 4-[4-(Trifluoromethyl)-phenyl]-butyl-N-[(3S)-2-oxoazetidin-3-yl]-carbamate], with 670 nM; and `Cc1cc(COC(=O)N[C@H]2CNC2=O)ccc1-c1ccccc1` [Example 44, (3-Methyl-4-phenyl-phenyl)-methyl-N-[(3S)-2-oxoazetidin-3-yl]-carbamate], with 590 nM; and `C[C@H]1NC(=O)[C@@H]1NC(=O)OCc1ccc(C2CCCCC2)cc1` [Example 82, (4-Cyclohexylphenyl)-methyl-N-[(2R,3R)-2-methyl-4-oxo-azetidin-3-yl]-carbamate], with 5100 nM.
Take `O=C(N[C@H]1CNC1=O)OCCOCC1CCCCC1` [Example 49, 2-(Cyclohexylmethoxy)-ethyl-N-[(3S)-2-oxoazetidin-3-yl]-carbamate]: inhibition was half-maximal at 1650 nM (IC50).
In turn, `O=C(N[C@H]1CNC1=O)OCCc1ccc(-c2ccccc2)cc1` [Example 36, 2-(4-Phenylphenyl)-ethyl-N-[(3S)-2-oxoazetidin-3-yl]-carbamate] returned an IC50 of 5050 nM.
`Cc1ccccc1-c1ccc(COC(=O)N[C@H]2CNC2=O)cc1` [Example 40, [4-(o-Tolyl)-phenyl]-methyl-N-[(3S)-2-oxoazetidin-3-yl]-carbamate] yielded an IC50 of 510 nM.
Still for that read-out and setting: then `Cc1cccc(-c2ccc(COC(=O)N[C@H]3CNC3=O)cc2C)c1` [Example 42, [3-Methyl-4-(m-tolyl)-phenyl]-methyl-N-[(3S)-2-oxoazetidin-3-yl]-carbamate], with 620 nM; and `CC(C)(C)c1ccc(COC(=O)N[C@H]2CNC2=O)cc1` [Example 57, (4-tert-Butylphenyl)-methyl-N-[(3S)-2-oxoazetidin-3-yl]-carbamate], with 180 nM.
`O=C(N[C@H]1CNC1=O)OCc1ccc(C2CCCC2)cc1` [Example 55, (4-Cyclopentylphenyl)-methyl-N-[(3S)-2-oxoazetidin-3-yl]-carbamate]: the IC50 turned out to be 31 nM.

The assay is the same for the next values; noted with them: @ 30 μM; read-out: r-NAAA UPLC/MS assay % inhib.
For `C#CCCOC(=O)N[C@H]1CNC1=O` [Example 65, But-3-ynyl-N-[(3S)-2-oxoazetidin-3-yl]-carbamate], the inhibition at 30 µM stood at 20%.

The same assay, now with this note: @100 μM.
Consider `C[C@H]1NC(=O)[C@H]1NC(=O)OCc1ccc(-c2ccccc2)cc1` [Example 77, (4-Phenylphenyl)-methyl-N-[(2R,3S)-2-methyl-4-oxo-azetidin-3-yl]-carbamate], for which the “r-NAAA UPLC/MS assay (n.a.)” value is recorded as “n.a. (n.a. = <10% inhib. @100 μM)”.
On the same count and under the same terms, then `CC1(C)NC(=O)[C@@H]1NC(=O)OCc1ccc(C2CCCCC2)cc1` [Example 91, (4-Cyclohexylphenyl)-methyl-N-[(3R)-2,2-dimethyl-4-oxo-azetidin-3-yl]-carbamate], with “n.a. (n.a. = <10% inhib. @100 μM)”; and `O=C(N[C@H]1CNC1=O)OCc1ccccc1C1CCCCC1` [Example 35, (2-Cyclohexylphenyl)-methyl-N-[(3S)-2-oxoazetidin-3-yl]-carbamate], with “n.a. (n.a. = <10% inhib. @100 μM)”; and `O=C(N[C@H]1CNC1=O)OCCCCc1ccccn1` [Example 37, 4-(2-Pyridyl)-butyl-N-[(3S)-2-oxoazetidin-3-yl]-carbamate], with “n.a. (n.a. = <10% inhib. @100 μM)”.
For `CC1(C)NC(=O)[C@@H]1NC(=O)OCc1ccc(-c2ccccc2)cc1` [Example 90, (4-Phenylphenyl)-methyl-N-[(3R)-2,2-dimethyl-4-oxo-azetidin-3-yl]-carbamate], the “r-NAAA UPLC/MS assay (n.a.)” value is “n.a. (n.a. = <10% inhib. @100 μM)”.
Turning to `C[C@H]1NC(=O)[C@@H]1NC(=O)OCc1ccc(-c2ccccc2)cc1` [Example 81, (4-Phenylphenyl)-methyl-N-[(2R,3R)-2-methyl-4-oxo-azetidin-3-yl]-carbamate], the “r-NAAA UPLC/MS assay (n.a.)” value is given as “n.a. (n.a. = <10% inhib. @100 μM)”.
On the same count and under the same terms, to `CC1(C)NC(=O)[C@H]1NC(=O)OCc1ccc(-c2ccccc2)cc1` [Example 87, (4-Phenylphenyl)-methyl-N-[(3S)-2,2-dimethyl-4-oxo-azetidin-3-yl]-carbamate] belongs “n.a. (n.a. = <10% inhib. @100 μM)”.
The same measure, in the same setting: to `CC1(C)NC(=O)[C@@H]1NC(=O)OCCCCC1CCCCC1` [Example 89, 4-Cyclohexylbutyl-N-[(3R)-2,2-dimethyl-4-oxo-azetidin-3-yl]-carbamate] belongs “n.a. (n.a. = <10% inhib. @100 μM)”.

Still in this assay, the particulars now being: read-out: r-NAAA UPLC/MS assay % inhib.
Regarding `O=C(N[C@H]1CNC1=O)OCc1cccc(-c2ccccc2)c1` [Example 62, (3-Phenylphenyl)-methyl-N-[(3S)-2-oxoazetidin-3-yl]-carbamate], the inhibition at 30 µM came out at 45%.

A word on the IC50: it is the concentration that inhibits the measured activity by half. Read a high IC50 as weaker potency.
